Like-named read-outs stand apart in the source and are kept apart here. *1 amine or outer side, *2 acyl side, *3 side chain or, on linkers, in order; H or OH if unused. Where a SMILES comes first, the peptide text is derived from it. Bridges are numbered along the chain shown (N, C = ends). [ ]: non-standard residue; d: D form. The star is where a group is joined. ξ: configuration not given here. Ala(piperidin-4-yl) = O=C([C@H](CC1CCN([*:3])CC1)N[*:1])[*:2]; DOTA = O=C(O)CN1CCN(CC(=O)O)CCN(CC(=O)*)CCN(CC(=O)O)CC1; Ala(morpholin-4-yl) = N[C@@H](CN1CCOCC1)C(=O)O; Bip = N[C@@H](Cc1ccc(-c2ccccc2)cc1)C(=O)O; 2Nal = N[C@@H](Cc1ccc2ccccc2c1)C(=O)O; Gly(4-THP) = N[C@H](C(=O)O)C1CCOCC1; Nva(3-Et) = CCC(CC)[C@H](N)C(=O)O; X4 = O=C(C(CC1CCNCC1)N[*:1])[*:2]; AllylGly = C=CC[C@H](N)C(=O)O; Chg = N[C@H](C(=O)O)C1CCCCC1; Tle = CC(C)(C)[C@H](N)C(=O)O; Aze = O=C(O)[C@@H]1CCN1; ξC = NC(CS)C(=O)O; Sar = CNCC(=O)O

This test deals with T1, DLL3 (Homo sapiens, UniProt Q9NYJ7).
T1 sequence (Q9NYJ7 27-618): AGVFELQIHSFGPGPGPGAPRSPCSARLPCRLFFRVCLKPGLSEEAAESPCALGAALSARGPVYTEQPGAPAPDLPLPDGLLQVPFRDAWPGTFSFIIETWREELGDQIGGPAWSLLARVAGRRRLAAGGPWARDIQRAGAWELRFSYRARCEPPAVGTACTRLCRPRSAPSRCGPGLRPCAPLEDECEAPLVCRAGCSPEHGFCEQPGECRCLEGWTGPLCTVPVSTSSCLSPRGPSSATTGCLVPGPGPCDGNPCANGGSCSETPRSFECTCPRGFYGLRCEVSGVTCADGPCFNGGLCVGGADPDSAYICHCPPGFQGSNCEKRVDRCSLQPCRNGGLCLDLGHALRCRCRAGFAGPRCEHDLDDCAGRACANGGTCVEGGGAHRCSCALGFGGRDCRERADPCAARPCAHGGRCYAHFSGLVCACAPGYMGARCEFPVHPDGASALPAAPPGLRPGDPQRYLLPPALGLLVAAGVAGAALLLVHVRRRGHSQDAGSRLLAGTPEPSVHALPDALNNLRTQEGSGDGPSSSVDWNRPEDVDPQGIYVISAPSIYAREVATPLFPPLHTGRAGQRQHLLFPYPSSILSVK
Kind of test: SPR KD, biotinylated human DLL3 on streptavidin chip (Table 8). Details: biotin (biotinylated). The settings on record: biotinylated human DLL3 on streptavidin sensor chip, 25° C., 1:1 binding model. An excerpt:
Biotinylated target ligand human DLL3 was immobilized on a streptavidin sensor chip. A reference surface was set up for nonspecific binding and refractive index changes. […] Sensorgram curves were fitted with 1:1 binding model, and affinity and kinetic parameters were obtained using Biacore Insight evaluation 4.0. software.

For the setting “SPR KD”, `CC[C@H](C)[C@H](NC(=O)[C@@H](NC(=O)[C@H](Cc1c[nH]c2ccccc12)NC(C)=O)[C@@H](C)O)C(=O)N[C@H]1CSSC[C@@H](C(=O)N[C@@H](Cc2c[nH]c3ccccc23)C(=O)N2CCC[C@H]2C(=O)N[C@H](CCCCNC(=O)CN2CCN(CC(=O)O)CCN(CC(=O)O)CCN(CC(=O)O)CC2)C(N)=O)NC(=O)[C@H](CC(=O)O)NC(=O)[C@H](CCCCNC(=O)CN2CCN(CC(=O)O)CCN(CC(=O)O)CCN(CC(=O)O)CC2)NC(=O)[C@H](Cc2ccc3ccccc3c2)NC(=O)[C@H](CC(N)=O)NC(=O)[C@H](CC(N)=O)NC1=O` [compound 253, Ac-W-T-I-C(3)-N-N-(2Nal)-Lys(DOTA)-D-C(3)-W-P-[D-Lys(DOTA)]-NH2] (Ac-WTICNN[2Nal]K(DOTA)DCWP[dK](DOTA)-NH2; disulfide 4-10) had a Kd below 1 nM.

For `CC[C@H](C)[C@H](NC(=O)[C@@H](NC(=O)[C@H](Cc1c[nH]c2ccccc12)NC(C)=O)[C@@H](C)O)C(=O)N[C@H]1CSSC[C@@H](C(=O)N[C@@H](Cc2c[nH]c3ccccc23)C(=O)N2CCC[C@H]2C(N)=O)NC(=O)[C@H](CC(=O)O)NC(=O)[C@H](CCCCNC(=O)CN2CCN(CC(=O)O)CCN(CC(=O)O)CCN(CC(=O)O)CC2)NC(=O)[C@H](Cc2ccc3ccccc3c2)NC(=O)[C@H](CC(N)=O)NC(=O)[C@H](CC(N)=O)NC1=O` [compound 254] (Ac-WTICNN[2Nal]K(DOTA)DCWP-NH2; disulfide 4-10), the dissociation constant (Kd) (read-out: SPR KD) is below 1 nM.

Take `CC(=O)N[C@@H](Cc1c[nH]c2ccccc12)C(=O)N[C@H](C(=O)N[C@H](C(=O)N[C@H]1CSSC[C@@H](C(=O)N[C@@H](Cc2c[nH]c3ccccc23)C(=O)N2CCC[C@H]2C(N)=O)NC(=O)[C@H](CC(=O)O)NC(=O)[C@H](CCCCNC(=O)CN2CCN(CC(=O)O)CCN(CC(=O)O)CCN(CC(=O)O)CC2)NC(=O)[C@H](Cc2ccc3ccccc3c2)NC(=O)[C@H](CC(N)=O)NC(=O)C(CN2CCOCC2)NC1=O)C(C)(C)C)[C@@H](C)O` (stereo partly drawn) [compound 309, Ac-W-T-(Tbg)-C(3)-[3-(1-morpholinyl)-Ala]-N-(2Nal)-Lys(DOTA)-D-C(3)-W-P-CONH2]: the Kd (read-out: SPR KD) is below 1 nM.

As for `CC(=O)N[C@@H](Cc1c[nH]c2ccccc12)C(=O)N[C@H](C(=O)N[C@H](C(=O)N[C@H]1CSSC[C@@H](C(=O)N[C@@H](Cc2c[nH]c3ccccc23)C(=O)N2CCC[C@H]2C(N)=O)NC(=O)[C@H](CC(=O)O)NC(=O)[C@H](CCCCNC(=O)CN2CCN(CC(=O)O)CCN(CC(=O)O)CCN(CC(=O)O)CC2)NC(=O)[C@H](Cc2ccc3ccccc3c2)NC(=O)[C@H](CC(N)=O)NC(=O)C(CC2CCNCC2)NC1=O)C1CCOCC1)[C@@H](C)O` (stereo partly drawn) [compound 319, Ac-W-T-(THPG)-C(3)-[3-(4-piperidinyl)-Ala]-N-(2Nal)-Lys(DOTA)-D-C(3)-W-P-CONH2] (Ac-WT[Gly(4-THP)]C[X4]N[2Nal]K(DOTA)DCWP-NH2; disulfide 4-10), the dissociation constant Kd (read-out: SPR KD) is below 1 nM.

Regarding `CC(=O)N[C@@H](Cc1c[nH]c2ccccc12)C(=O)N[C@H](C(=O)N[C@H](C(=O)N[C@H]1CSSC[C@@H](C(=O)N[C@@H](Cc2c[nH]c3ccccc23)C(=O)N2CCC[C@H]2C(N)=O)NC(=O)[C@H](CC(=O)O)NC(=O)[C@H](CCCCNC(=O)CN2CCN(CC(=O)O)CCN(CC(=O)O)CCN(CC(=O)O)CC2)NC(=O)[C@H](Cc2ccc3ccccc3c2)NC(=O)[C@H](CC(N)=O)NC(=O)[C@H](CN2CCOCC2)NC1=O)C1CCCCC1)[C@@H](C)O` [compound 325, Ac-W-T-(Chg)-C(3)-[3-(1-morpholinyl)-Ala]-N-(2Nal)-Lys(DOTA)-D-C(3)-W-P-CONH2] (Ac-WT[Chg]C[Ala(morpholin-4-yl)]N[2Nal]K(DOTA)DCWP-NH2; disulfide 4-10), the dissociation constant Kd (SPR KD) is below 1 nM.

Turning to `CC(=O)N[C@@H](Cc1c[nH]c2ccccc12)C(=O)N[C@H](C(=O)N[C@H](C(=O)N[C@H]1CSSC[C@@H](C(=O)N[C@@H](Cc2c[nH]c3ccccc23)C(=O)N2CCC[C@H]2C(N)=O)NC(=O)[C@H](C)NC(=O)[C@@H](CCCCNC(=O)CN2CCN(CC(=O)O)CCN(CC(=O)O)CCN(CC(=O)O)CC2)NC(=O)[C@H](Cc2ccc3ccccc3c2)NC(=O)[C@H](CC(N)=O)NC(=O)[C@H](CC2CCNCC2)NC1=O)C1CCOCC1)[C@@H](C)O` [compound 327, Ac-W-T-(THPG)-C(3)-[3-(4-piperidinyl)-Ala]-N-(2Nal)-Lys(DOTA)-(Ala)-C(3)-W-P-CONH2] (Ac-WT[Gly(4-THP)]C[Ala(piperidin-4-yl)]N[2Nal][dK](DOTA)ACWP-NH2; disulfide 4-10), for the setting “read-out: SPR KD”, the dissociation constant (Kd) is below 1 nM.

With `CC(=O)N[C@@H](Cc1c[nH]c2ccccc12)C(=O)N[C@H](C(=O)N[C@H](C(=O)N[C@H]1CSSCC(C(=O)N[C@@H](Cc2c[nH]c3ccccc23)C(=O)N2CCC[C@H]2C(N)=O)NC(=O)[C@H]([C@@H](C)O)NC(=O)[C@@H](CCCCNC(=O)CN2CCN(CC(=O)O)CCN(CC(=O)O)CCN(CC(=O)O)CC2)NC(=O)[C@H](Cc2ccc3ccccc3c2)NC(=O)[C@H](CC(N)=O)NC(=O)[C@H](CC2CCNCC2)NC1=O)C1CCOCC1)[C@@H](C)O` (stereo partly shown) [compound 328, Ac-W-T-(THPG)-C(3)-[3-(4-piperidinyl)-Ala]-N-(2Nal)-Lys(DOTA)-(Thr)-C(3)-W-P-CONH2] (Ac-WT[Gly(4-THP)]C[Ala(piperidin-4-yl)]N[2Nal][dK](DOTA)T[ξC]WP-NH2; disulfide 4-10), under “read-out: SPR KD”, the dissociation constant (Kd) is below 1 nM.

As to `CC[C@H](C)[C@H](NC(=O)[C@@H](NC(=O)[C@H](Cc1c[nH]c2ccccc12)NC(C)=O)[C@@H](C)O)C(=O)N[C@H]1CC=CC[C@@H](C(=O)N[C@@H](Cc2c[nH]c3ccccc23)C(=O)N2CCC[C@H]2C(N)=O)NC(=O)[C@H](CC(=O)O)NC(=O)[C@H](Cc2cnc[nH]2)NC(=O)[C@H](Cc2c[nH]c3ccccc23)NC(=O)[C@H](CC(N)=O)NC(=O)[C@H](CC(N)=O)NC1=O` [compound 331] (Ac-WTI[AllylGly]NNWHD[AllylGly]WP-NH2; staple 4-10), the dissociation constant Kd (read-out: SPR KD) is 100 to 300 nM.

For the molecule `CC[C@H](C)[C@H](NC(=O)[C@@H](NC(=O)[C@H](Cc1ccc(-c2ccccc2)cc1)NC(C)=O)[C@@H](C)O)C(=O)N[C@H]1CSSC[C@@H](C(=O)N[C@@H](Cc2c[nH]c3ccccc23)C(=O)N2CCC[C@H]2C(=O)O)NC(=O)[C@H](CC(=O)O)NC(=O)[C@H](Cc2c[nH]cn2)NC(=O)[C@H](Cc2c[nH]c3ccccc23)NC(=O)[C@H](CC(N)=O)NC(=O)[C@H](CC(N)=O)NC1=O` [compound 333, Ac-(BIP)-T-I-C(3)-N-N-W-H-D-C(3)-W-P-CONH2] (Ac-[Bip]TICNNWHDCWP-OH; disulfide 4-10), the Kd (read-out: SPR KD) is 100 to 300 nM.

As for `CC[C@H](C)[C@H](NC(=O)[C@@H](NC(=O)[C@H](Cc1c[nH]c2ccccc12)NC(C)=O)[C@@H](C)O)C(=O)N[C@H]1CSSC[C@@H](C(=O)N[C@@H](Cc2c[nH]c3ccccc23)C(=O)N(C)CC(N)=O)NC(=O)[C@H](CC(=O)O)NC(=O)[C@H](Cc2cnc[nH]2)NC(=O)[C@H](Cc2c[nH]c3ccccc23)NC(=O)[C@H](CC(N)=O)NC(=O)[C@H](CC(N)=O)NC1=O` [compound 334, Ac-W-T-I-C(3)-N-N-W-H-D-C(3)-W-(Sar)-CONH2] (Ac-WTICNNWHDCW[Sar]-NH2; disulfide 4-10), under “read-out: SPR KD”, the Kd fell in the range of 10 to 100 nM.

Regarding `CC[C@H](C)[C@H](NC(=O)[C@@H](NC(=O)[C@H](Cc1c[nH]c2ccccc12)NC(C)=O)[C@@H](C)O)C(=O)N[C@H]1CSSC[C@@H](C(=O)N[C@@H](Cc2c[nH]c3ccccc23)C(=O)N2CC[C@H]2C(N)=O)NC(=O)[C@H](CC(=O)O)NC(=O)[C@H](Cc2cnc[nH]2)NC(=O)[C@H](Cc2c[nH]c3ccccc23)NC(=O)[C@H](CC(N)=O)NC(=O)[C@H](CC(N)=O)NC1=O` [compound 335, Ac-W-T-I-C(3)-N-N-W-H-D-C(3)-W-(Aze)-CONH2] (Ac-WTICNNWHDCW[Aze]-NH2; disulfide 4-10), the dissociation constant (Kd) (read-out: SPR KD) is 1 to 10 nM.

Regarding `CC(=O)N[C@@H](Cc1c[nH]c2ccccc12)C(=O)N[C@H](C(=O)N[C@H](C(=O)N[C@H]1CSSC[C@@H](C(=O)N[C@@H](Cc2c[nH]c3ccccc23)C(=O)N2CCC[C@H]2C(N)=O)NC(=O)[C@H](CC(=O)O)NC(=O)[C@H](Cc2cnc[nH]2)NC(=O)[C@H](Cc2c[nH]c3ccccc23)NC(=O)[C@H](CC(N)=O)NC(=O)[C@H](CC(N)=O)NC1=O)C(C)(C)C)[C@@H](C)O` [compound 336, Ac-W-T-(Tbg)-C(3)-N-N-W-H-D-C(3)-W-P-CONH2] (Ac-WT[Tle]CNNWHDCWP-NH2; disulfide 4-10), where the note is “read-out: SPR KD”, the Kd was in the range of 1 to 10 nM.

On to `CCC(CC)[C@H](NC(=O)[C@@H](NC(=O)[C@H](Cc1c[nH]c2ccccc12)NC(C)=O)[C@@H](C)O)C(=O)N[C@H]1CSSC[C@@H](C(=O)N[C@@H](Cc2c[nH]c3ccccc23)C(=O)N2CCC[C@H]2C(N)=O)NC(=O)[C@H](CC(=O)O)NC(=O)[C@H](Cc2cnc[nH]2)NC(=O)[C@H](Cc2c[nH]c3ccccc23)NC(=O)[C@H](CC(N)=O)NC(=O)[C@H](CC(N)=O)NC1=O` [compound 337, Ac-W-T-(Env)-C(3)-N-N-W-H-D-C(3)-W-P-CONH2] (Ac-WT[Nva(3-Et)]CNNWHDCWP-NH2; disulfide 4-10), for which, under “read-out: SPR KD”, the Kd fell in the range of 1 to 10 nM.

The values are drawn from patent US20250049970A1, “DLL3 TARGETING PEPTIDES AND CONSTRUCTS THEREOF” (MARIANA ONCOLOGY INC., priority 2023, published 2025).
